Assay results published in patent publication US20090105238A1, “Compounds and Relative use for the Control of Phytopathogens” (ISAGRO RICERCA S.r.l, priority 2005, published 2009).

Tests used:
Plasmopara viticola = test: Fungicidal (preventive) activity against Peronospora of vines, leaf spray; type: in vivo, Plasmopara viticola on vine (cultivar Dolcetto); details: for Activity 125 ppm / Activity 250 ppm: 7-day preventive activity; for Activity 125 ppm: scale 0 to 100 (healthy plant); for Activity 250 ppm: scale 0 (completely infected plant) to 100 (healthy plant); for Activity (dose ppm): 7-day preventive, scale 0-100
Protocol: Determination of the Fungicidal Activity Against Peronospora of Vines (Plasmopara viticola) […] After remaining 24 hours in a conditioned environment, the plants were sprayed on both sides of the leaves with an aqueous suspension of conidia of Plasmopara viticola (20,000 conidia per cm^3). The plants are kept in a humidity saturated environment at 21° C. for the incubation period of the fungus.

Puccinia recondita = test: Fungicidal (preventive) activity against wheat rust, leaf spray; type: in vivo, Puccinia recondita on wheat (cultivar Gemini); details: 5-day preventive, scale 0-100
Protocol: Determination of the Fungicidal Activity Against Wheat Rust (Puccinia recondita)
(§1) Leaves of wheat plants (cultivar Gemini), grown in vases in a conditioned environment (20±1° C., 70% relative humidity) are treated by spraying both sides of the leaves with compounds 1, 2 and 3, dispersed in a hydroacetone solution at 20% by volume in acetone. […]
(§2) The plants are kept in a humidity saturated environment at a temperature ranging from 18 to 24° C. for the incubation period of the fungus.
At the end of this period (14 days), the fungicidal activity is evaluated according to an evaluation percentage scale from 0 (completely infected plant) to 100 (healthy plant).

Erysiphe graminis = test: Fungicidal (preventive) activity against oidium of wheat, leaf spray; type: in vivo, Erysiphe graminis on wheat (cultivar Gemini); details: 5-day preventive, scale 0-100
Protocol: Determination of the Fungicidal Activity Against Oidium of Wheat (Erysiphe graminis)
as §1, §2
At the end of this period (12 days), the fungicidal activity is evaluated according to an evaluation percentage scale from 0 (completely infected plant) to 100 (healthy plant).

PR1 = test: Gene response (PR1 expression, quantitative PCR) in treated seedlings; type: in vivo, arabidopsis thaliana; details: 800 ppm and 1600 ppm; leaves collected after 24 hours of treatment; compared with blank and glycine betaine (FIG. 1)
Protocol: Determination of the Gene Response of the Compounds Having General Formula (I) and their Mixtures with Other Fungicides
Four-week-old seedlings of arabidopsis thaliana were treated with the compounds having general formula (I) or their mixtures with other fungicides and the leaves were collected after 24 hours of treatment.
The total RNA was extracted from 0.05 g of fresh tissue using the “Genelute mammalian total RNA kit (Sigma)” according to the protocol indications. The cDNA were synthesized using “RevertAid™ M-MuLV Reverse Transcriptase” commercialized by Fermentas Life Sciences according to the following protocol: 2 μg of total RNA were mixed with 0.5 μg of oligo(dT) 18.
Deionized water (nuclease free) was then added to bring the reaction volume to 11 μl, the reaction was subsequently incubated at 70° C. for 5 minutes and then cooled in ice.
The following reagents were then added to the mixture:
4 μl of 5× reaction buffer, 10 mM of dNTP mix, 20 units of Ribonuclease inhibitor.
The reaction was incubated at 37° C. for 5 minutes, 200 units of RevertAid™ M-MuLV Reverse Transcriptase were subsequently added to the mixture and the reaction was incubated at 42° C. for 60 minutes. […]
A quantitative PCR analysis was effected on the cDNA using a mixture of primer/competimers of the ribosomal RNA 18S as internal standard in a ratio of 9:1. […]

Compound | Activity 125 ppm (Plasmopara viticola) | Activity 250 ppm (Plasmopara viticola) | also measured
Cocamidopropyl-β-phenylalaninebetaine [Compound 35] | 89 | 95 | 
Cocamidopropylhydroxysultaine [Compound 9] | 95 | 100 | 
CCCCCCCCCCCC(=O)NCCC[N+](C)(C)C(C)C(=O)[O-] (centres unmarked) [Compound 26, laurylamidopropyl[L]alaninebetaine] | 90 | 95 | 
CCCCCCCCCCCC(=O)NCCC[N+](C)(C)C(C(=O)[O-])C(C)C (centres unmarked) [Compound 24, laurylamidopropyl[L]valinebetaine] | 88 | 99 | 
CCCCCCCCCCCC(=O)NCCC[N+](C)(C)CCC(=O)[O-] [Compound 30, laurylamidopropyl- β-alaninebetaine] | 85 | 90 | 
Cocamidopropyl[L]phenylglycinebetaine [Compound 34] | 88 | 97 | 
Cocamidopropyl- β-4-chlorophenylalaninebetaine [Compound 36] | 85 | 94 | 
CCCCCCCCCCCC(=O)NCCC[N+]1(C)CCCC1C(=O)[O-] (centres unmarked) [Compound 25, laurylamidopropyl[L]prolinebetaine] | 95 | 100 | 
CCCCCCCCCCCC(=O)NCCC[N+](C)(C)CC(=O)[O-] [Compound 7, Laurylamidopropylbetaine] | 95 | 100 | 
Cocamidopropylbetaine [Compound 8] | 98 | 100 | Activity (dose ppm) (Puccinia recondita; 125 ppm): 29 (125 ppm); Activity (dose ppm) (Erysiphe graminis; 500 ppm): 20 (500 ppm); Activity (dose ppm) (Plasmopara viticola; 30 ppm): 30; gene response (PR1): exceptional gene response
COC(=O)CC(NC(=O)[C@@H](NC(=O)OC(C)C)C(C)C)c1ccc(Cl)cc1 (some centres unmarked) [IR5885, reference compound] |  |  | Activity (dose ppm) (Puccinia recondita; 500 ppm): 15; Activity (dose ppm) (Erysiphe graminis; 500 ppm): 20; Activity (dose ppm) (Plasmopara viticola; 0.22 ppm): 15; Activity (dose ppm) (Plasmopara viticola; 0.45 ppm): 41
FC(F)C(F)(F)OCC(Cn1cncn1)c1ccc(Cl)cc1Cl (centres unmarked) [Tetraconazole, tetraconazole] |  |  | Activity (dose ppm) (Puccinia recondita; 30 ppm): 58; Activity (dose ppm) (Erysiphe graminis; 1.8 ppm): 48; Activity (dose ppm) (Plasmopara viticola; 30 ppm): 20
Cholesterylcarbonylamidopropylbetaine [Compound 10] | 90 | 95 | 
C[N+](C)(C)CC(=O)[O-] [Glycine betaine, reference compound] |  |  | Activity (dose ppm) (Plasmopara viticola; 30 ppm): 30
Cocamidopropyl[L]prolinebetaine [Compound 32] | 88 | 95 | 
CCCCCCCCCCCC(=O)NCCC[N+](C)(C)C(CC(=O)[O-])c1ccccc1 (stereo not drawn) [Compound 28, laurylamidopropyl- β-phenylalaninebetaine] | 90 | 99 | 
Cholanylamidopropylbetaine [Compound 11] | 90 | 94 | 
Cocamidopropyl[L]valinebetaine [Compound 31] | 85 | 98 | 
CCCCCCCCCCCC(=O)NCCC[N+](C)(C)C(CC(=O)[O-])c1ccc(Cl)cc1 (stereo not drawn) [Compound 29, laurylamidopropyl-β-4-chlorophenylalaninebetaine] | 90 | 95 | 
CCCCCCCCCCCC[N+](C)(C)CC(O)CS(=O)(=O)[O-] (centres unmarked) [Compound 5, Laurylhydroxysultaine] | 85 | 99 | 
Cocamidopropyl- β-alaninebetaine [Compound 37] | 86 | 98 | 
cocamidopropyl[L]alaninebetaine [Compound 33] | 85 | 96 | 
